For data set [1], the target named is Hepatocyte growth factor receptor (Homo sapiens, UniProt P08581). The data set is described as follows: Inhibition of c-Met (unknown origin).
Data set [2] can be described thus: Cytotoxicity against human SNU5 cells assessed as inhibition of tumour growth after 3 days by WST-8 assay. The format is functional, cell-based. As to conditions: SNU-5, 72 h.
Data set [3] concerns HUVEC. As to the kind of experiment: Antiangiogenic activity in HUVEC assessed as inhibition of bFGF induced cell proliferation after 3 days by WST-1 assay. The format is functional, cell-based. The conditions noted are these: Homo sapiens, 72 h. For orientation: Tetrazolium dyes change colour on reduction, which living cells bring about.
The nature of data set [4]: Cytotoxicity against human Hs 746T cells assessed as inhibition of tumour growth after 3 days by WST-8 assay. The format is functional, cell-based. As to conditions: Hs746T, 72 h.
Data set [5] concerns HUVEC. As to the kind of experiment: Antiangiogenic activity in HUVEC assessed as inhibition of HGF induced cell proliferation after 3 days by WST-1 assay. In kind it is functional, cell-based. As to conditions: Homo sapiens, 72 h.
For data set [6], the target named is Vascular endothelial growth factor receptor 2 (Homo sapiens, UniProt P35968). The data set is described as follows: Inhibition of VEGFR-2 autophosphorylation in HUVEC after 1 hr by Western blot analysis. The format is cell-based. In general terms: A western blot detects proteins with antibodies after separation by electrophoresis.
A short description of data set [7]: Cytotoxicity against human MKN45 cells assessed as inhibition of tumour growth after 3 days by WST-8 assay. The format is functional, cell-based. As to conditions: MKN-45, 72 h.
Data set [8] concerns HUVEC. As to the kind of experiment: Antiangiogenic activity in HUVEC assessed as inhibition of VEGF induced cell proliferation after 3 days by WST-1 assay. As to conditions: Homo sapiens, 72 h. The format is functional, cell-based.
Data set [9] is described as follows: Cytotoxicity against human EBC1 cells assessed as inhibition of tumour growth after 3 days by WST-8 assay. The format is functional, cell-based. As to conditions: EBC-1, 72 h.
The nature of data set [10]: Antitumor activity against mouse B16F10 cells implanted in naive mouse assessed as tumour growth inhibition at 100 mg/kg, po qd by Zeiss stereoscopic analysis relative to control. In kind it is functional. As to conditions: B16-F10, po, read-out: TGI.
A short description of data set [11]: Antitumor activity against mouse B16F10 cells implanted in naive mouse assessed as reduction in lung surface tumor burden at 30 mg/kg, po qd by Zeiss stereoscopic analysis relative to control. In kind it is functional, B16-F10. More on the design: scale not given: the % may be the effect or the level left.
Data set [12] can be described thus: Antitumor activity against mouse B16F10 cells implanted in naive mouse assessed as tumour growth inhibition at 30 mg/kg, po qd by Zeiss stereoscopic analysis relative to control. In kind it is functional. As to conditions: B16-F10, po, read-out: TGI.
The nature of data set [13]: Antitumor activity against mouse B16F10 cells implanted in naive mouse assessed as reduction in lung surface tumor burden at 100 mg/kg, po qd by Zeiss stereoscopic analysis relative to control. The format is functional, B16-F10. Details: scale not given: the % may be the effect or the level left.
Data set [14] is described as follows: Antitumor activity against mouse B16F10 cells implanted in naive mouse assessed as reduction in metastatic tumor burden at 100 mg/kg, po qd by Zeiss stereoscopic analysis relative to control. The format is functional, B16-F10. Details: scale not given: the % may be the effect or the level left.
Data set [15] can be described thus: Antitumor activity against mouse B16F10 cells implanted in naive mouse assessed as reduction in metastatic tumor burden at 30 mg/kg, po qd by Zeiss stereoscopic analysis relative to control. The format is functional, B16-F10. More on the design: scale not given: the % may be the effect or the level left.
A short description of data set [16]: Cytotoxicity against HUVEC assessed as inhibition of VEGF-independent growth after 72 hrs by CellTiter-Glo method. As to conditions: human, HUVEC cells. The format is cell-based. (In general: Cellular ATP, detected with luciferase, serves as a proxy for viable cell number.)
The target in data set [17] is T1, Tyrosine-protein kinase receptor UFO (Homo sapiens, UniProt P30530).
T1 sequence (P30530 whole entry): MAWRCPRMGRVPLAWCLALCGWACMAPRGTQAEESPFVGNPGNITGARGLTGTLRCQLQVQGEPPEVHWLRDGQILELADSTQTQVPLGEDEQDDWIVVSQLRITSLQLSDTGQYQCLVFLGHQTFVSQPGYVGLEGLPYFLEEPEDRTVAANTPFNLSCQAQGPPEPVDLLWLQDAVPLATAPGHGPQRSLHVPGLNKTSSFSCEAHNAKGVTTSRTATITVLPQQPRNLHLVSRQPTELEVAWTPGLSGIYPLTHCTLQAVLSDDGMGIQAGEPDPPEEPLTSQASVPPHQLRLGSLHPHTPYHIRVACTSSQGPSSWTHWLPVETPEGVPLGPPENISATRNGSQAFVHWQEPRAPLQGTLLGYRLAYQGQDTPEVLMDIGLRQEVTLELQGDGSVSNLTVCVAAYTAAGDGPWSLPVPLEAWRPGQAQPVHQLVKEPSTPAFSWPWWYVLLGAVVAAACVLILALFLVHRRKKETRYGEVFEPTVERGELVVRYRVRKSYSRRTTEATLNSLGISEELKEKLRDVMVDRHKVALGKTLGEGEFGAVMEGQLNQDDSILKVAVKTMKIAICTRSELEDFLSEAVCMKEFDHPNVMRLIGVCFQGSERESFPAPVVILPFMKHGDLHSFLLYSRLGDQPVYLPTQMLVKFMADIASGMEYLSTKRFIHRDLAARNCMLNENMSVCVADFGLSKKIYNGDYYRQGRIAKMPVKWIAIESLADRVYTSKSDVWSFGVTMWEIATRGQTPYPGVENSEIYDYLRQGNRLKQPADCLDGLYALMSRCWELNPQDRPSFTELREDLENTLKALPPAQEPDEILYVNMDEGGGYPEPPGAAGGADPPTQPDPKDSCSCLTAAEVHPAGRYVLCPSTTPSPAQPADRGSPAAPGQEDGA
As to the kind of experiment: Inhibition of Axl (unknown origin).

Data set [18] deals with Macrophage-stimulating protein receptor (Homo sapiens, UniProt Q04912). The data set is described as follows: Inhibition of Ron (unknown origin).
Data set [19] deals with T2, Receptor-type tyrosine-protein kinase FLT3 (Homo sapiens, UniProt P36888).
T2 sequence (P36888 whole entry): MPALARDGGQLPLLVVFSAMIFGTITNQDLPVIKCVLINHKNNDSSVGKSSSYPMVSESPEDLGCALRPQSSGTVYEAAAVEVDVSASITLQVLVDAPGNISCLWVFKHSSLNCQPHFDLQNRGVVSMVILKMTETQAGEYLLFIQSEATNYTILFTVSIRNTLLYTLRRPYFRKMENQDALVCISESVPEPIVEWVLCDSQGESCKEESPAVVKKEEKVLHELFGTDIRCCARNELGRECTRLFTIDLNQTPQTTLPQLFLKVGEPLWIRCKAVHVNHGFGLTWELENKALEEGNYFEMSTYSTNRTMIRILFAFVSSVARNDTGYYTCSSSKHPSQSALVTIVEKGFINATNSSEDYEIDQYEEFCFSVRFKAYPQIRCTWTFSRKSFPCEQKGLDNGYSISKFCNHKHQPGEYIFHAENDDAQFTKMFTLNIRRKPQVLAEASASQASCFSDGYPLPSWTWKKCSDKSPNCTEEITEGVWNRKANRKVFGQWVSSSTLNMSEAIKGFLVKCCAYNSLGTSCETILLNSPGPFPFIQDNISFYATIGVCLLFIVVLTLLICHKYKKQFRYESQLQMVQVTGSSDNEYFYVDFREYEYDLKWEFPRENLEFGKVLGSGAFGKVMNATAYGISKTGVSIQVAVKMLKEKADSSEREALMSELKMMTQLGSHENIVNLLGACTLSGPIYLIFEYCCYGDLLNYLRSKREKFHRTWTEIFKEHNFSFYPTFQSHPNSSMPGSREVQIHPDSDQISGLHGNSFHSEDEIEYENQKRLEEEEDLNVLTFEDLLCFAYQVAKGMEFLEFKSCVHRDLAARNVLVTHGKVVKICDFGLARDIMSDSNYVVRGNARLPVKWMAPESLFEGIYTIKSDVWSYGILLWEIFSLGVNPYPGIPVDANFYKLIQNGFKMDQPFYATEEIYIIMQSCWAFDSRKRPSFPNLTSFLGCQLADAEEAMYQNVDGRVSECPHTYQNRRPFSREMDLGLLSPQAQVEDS
The data set is described as follows: Inhibition of Flt-3 (unknown origin).

In data set [20] the target is Vascular endothelial growth factor receptor 3 (Homo sapiens, UniProt P35916). As to the kind of experiment: Inhibition of VEGFR-3 (unknown origin) by AlphaScreen assay.
Data set [21] concerns the target Vascular endothelial growth factor receptor 1 (Homo sapiens, UniProt P17948). As to the kind of experiment: Inhibition of VEGFR-1 (unknown origin) by AlphaScreen assay.

pIC50, pKi: −log10 of the molar value. Some results are limits rather than exact numbers.

Chain of Hepatocyte growth factor receptor (P08581 whole entry): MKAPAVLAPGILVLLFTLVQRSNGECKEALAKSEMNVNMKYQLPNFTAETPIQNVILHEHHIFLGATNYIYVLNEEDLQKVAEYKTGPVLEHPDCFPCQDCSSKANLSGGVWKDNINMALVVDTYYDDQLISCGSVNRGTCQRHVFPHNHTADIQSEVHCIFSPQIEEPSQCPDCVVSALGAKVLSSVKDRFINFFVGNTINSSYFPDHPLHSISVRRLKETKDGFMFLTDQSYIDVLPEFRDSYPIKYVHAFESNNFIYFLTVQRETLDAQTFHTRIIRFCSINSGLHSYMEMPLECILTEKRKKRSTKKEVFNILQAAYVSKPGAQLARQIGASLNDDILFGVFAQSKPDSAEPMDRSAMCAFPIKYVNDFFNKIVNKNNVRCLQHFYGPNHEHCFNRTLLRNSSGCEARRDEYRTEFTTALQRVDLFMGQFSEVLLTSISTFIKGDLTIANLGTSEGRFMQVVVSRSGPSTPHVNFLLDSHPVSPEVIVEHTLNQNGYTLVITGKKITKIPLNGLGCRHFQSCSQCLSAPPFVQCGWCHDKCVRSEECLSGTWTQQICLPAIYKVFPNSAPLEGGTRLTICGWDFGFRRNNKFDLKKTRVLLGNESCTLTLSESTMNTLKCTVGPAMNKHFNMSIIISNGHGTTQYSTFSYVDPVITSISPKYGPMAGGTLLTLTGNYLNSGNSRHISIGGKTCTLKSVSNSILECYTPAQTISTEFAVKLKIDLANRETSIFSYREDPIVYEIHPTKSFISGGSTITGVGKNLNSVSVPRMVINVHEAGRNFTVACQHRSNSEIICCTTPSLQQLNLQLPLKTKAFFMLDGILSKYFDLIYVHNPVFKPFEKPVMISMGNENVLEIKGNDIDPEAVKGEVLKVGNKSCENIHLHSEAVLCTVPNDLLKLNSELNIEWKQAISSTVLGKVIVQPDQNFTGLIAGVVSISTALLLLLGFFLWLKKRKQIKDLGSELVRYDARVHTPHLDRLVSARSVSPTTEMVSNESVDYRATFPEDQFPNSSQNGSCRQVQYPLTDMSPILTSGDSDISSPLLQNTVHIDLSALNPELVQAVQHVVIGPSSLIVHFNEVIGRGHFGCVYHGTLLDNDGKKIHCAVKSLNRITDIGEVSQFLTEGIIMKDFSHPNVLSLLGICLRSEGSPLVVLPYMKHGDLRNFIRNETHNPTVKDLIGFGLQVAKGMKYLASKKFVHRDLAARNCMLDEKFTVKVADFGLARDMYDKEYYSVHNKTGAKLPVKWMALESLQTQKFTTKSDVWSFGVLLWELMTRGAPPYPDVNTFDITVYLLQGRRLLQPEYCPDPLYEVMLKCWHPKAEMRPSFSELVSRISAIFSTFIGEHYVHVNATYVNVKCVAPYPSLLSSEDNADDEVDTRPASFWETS
Chain of Vascular endothelial growth factor receptor 3 (P35916 whole entry): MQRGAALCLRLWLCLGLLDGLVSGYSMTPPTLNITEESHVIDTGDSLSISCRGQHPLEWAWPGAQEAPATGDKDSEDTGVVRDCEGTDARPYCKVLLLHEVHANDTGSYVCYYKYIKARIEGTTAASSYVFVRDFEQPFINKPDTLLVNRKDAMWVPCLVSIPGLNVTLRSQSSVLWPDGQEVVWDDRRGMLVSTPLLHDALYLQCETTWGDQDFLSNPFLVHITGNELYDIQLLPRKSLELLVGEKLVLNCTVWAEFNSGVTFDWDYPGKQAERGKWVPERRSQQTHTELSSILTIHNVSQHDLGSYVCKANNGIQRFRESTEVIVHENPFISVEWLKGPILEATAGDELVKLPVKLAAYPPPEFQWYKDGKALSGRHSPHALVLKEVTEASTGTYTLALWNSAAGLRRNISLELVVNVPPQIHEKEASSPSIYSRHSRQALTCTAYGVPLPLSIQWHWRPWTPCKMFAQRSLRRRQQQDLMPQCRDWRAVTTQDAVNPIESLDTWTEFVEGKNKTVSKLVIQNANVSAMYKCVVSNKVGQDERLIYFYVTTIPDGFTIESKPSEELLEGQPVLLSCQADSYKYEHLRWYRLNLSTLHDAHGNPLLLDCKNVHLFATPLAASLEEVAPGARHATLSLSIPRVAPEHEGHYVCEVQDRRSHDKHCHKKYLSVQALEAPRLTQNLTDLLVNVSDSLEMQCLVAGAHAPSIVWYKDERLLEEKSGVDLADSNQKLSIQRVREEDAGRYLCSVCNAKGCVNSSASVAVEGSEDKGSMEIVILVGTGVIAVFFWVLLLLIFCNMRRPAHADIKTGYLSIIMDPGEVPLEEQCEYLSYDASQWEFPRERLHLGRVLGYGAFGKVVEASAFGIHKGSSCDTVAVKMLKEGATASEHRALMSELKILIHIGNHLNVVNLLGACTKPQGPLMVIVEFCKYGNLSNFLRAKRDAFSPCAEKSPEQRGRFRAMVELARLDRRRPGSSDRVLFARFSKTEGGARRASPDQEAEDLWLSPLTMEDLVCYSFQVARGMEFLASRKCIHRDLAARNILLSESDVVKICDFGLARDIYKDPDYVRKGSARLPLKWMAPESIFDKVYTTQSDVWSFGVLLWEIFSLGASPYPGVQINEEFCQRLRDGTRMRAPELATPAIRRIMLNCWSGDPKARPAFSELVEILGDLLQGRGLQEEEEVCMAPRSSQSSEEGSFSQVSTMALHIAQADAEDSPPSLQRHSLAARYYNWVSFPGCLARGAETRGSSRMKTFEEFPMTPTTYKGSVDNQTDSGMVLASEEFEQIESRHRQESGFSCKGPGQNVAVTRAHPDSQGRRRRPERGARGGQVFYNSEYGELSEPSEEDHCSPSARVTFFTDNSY
Chain of Macrophage-stimulating protein receptor (Q04912 25-304 limits assumed): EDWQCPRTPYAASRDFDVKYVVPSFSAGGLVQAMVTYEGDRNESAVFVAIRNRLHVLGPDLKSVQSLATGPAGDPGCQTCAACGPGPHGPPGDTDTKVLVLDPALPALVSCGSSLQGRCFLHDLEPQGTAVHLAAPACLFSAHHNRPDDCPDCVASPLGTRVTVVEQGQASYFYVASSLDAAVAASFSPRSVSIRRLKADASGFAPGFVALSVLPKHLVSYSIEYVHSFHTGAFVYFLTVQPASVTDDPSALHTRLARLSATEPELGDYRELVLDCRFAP
Chain of Macrophage-stimulating protein receptor (Q04912 310-1400 limits assumed): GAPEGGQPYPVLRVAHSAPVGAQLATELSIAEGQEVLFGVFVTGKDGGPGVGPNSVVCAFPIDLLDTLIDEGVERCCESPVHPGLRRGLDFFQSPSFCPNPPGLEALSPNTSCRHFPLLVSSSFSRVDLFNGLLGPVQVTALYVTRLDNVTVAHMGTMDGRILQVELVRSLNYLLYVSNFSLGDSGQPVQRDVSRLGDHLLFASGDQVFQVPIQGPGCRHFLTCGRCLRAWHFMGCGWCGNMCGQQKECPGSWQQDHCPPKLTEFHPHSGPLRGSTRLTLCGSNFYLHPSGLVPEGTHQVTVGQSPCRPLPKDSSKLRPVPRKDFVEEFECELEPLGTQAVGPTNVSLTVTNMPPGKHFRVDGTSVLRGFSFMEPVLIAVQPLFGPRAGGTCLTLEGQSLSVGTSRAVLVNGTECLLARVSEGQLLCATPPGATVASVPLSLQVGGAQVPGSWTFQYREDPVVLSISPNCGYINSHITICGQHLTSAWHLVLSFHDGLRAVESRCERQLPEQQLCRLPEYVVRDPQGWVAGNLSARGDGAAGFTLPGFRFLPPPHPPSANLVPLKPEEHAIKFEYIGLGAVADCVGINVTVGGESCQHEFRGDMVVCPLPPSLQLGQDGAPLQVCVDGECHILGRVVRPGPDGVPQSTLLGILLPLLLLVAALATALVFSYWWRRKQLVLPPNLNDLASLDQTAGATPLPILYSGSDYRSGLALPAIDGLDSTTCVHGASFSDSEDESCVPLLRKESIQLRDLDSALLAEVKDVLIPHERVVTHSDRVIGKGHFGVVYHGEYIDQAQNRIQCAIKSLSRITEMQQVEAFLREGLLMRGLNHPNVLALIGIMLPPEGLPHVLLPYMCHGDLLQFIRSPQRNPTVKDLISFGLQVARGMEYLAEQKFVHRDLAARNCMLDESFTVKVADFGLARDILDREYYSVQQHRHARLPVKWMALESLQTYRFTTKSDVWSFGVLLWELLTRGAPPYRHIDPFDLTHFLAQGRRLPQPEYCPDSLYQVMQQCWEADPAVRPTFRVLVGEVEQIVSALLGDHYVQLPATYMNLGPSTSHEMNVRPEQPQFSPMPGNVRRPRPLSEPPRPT

Turning to `O=C1NC(=O)[C@@H](c2cn3c4c(cccc24)CCC3)[C@@H]1c1c[nH]c2ccccc12` [TIVANTINIB], the pKi (commonly the negative decadic logarithm of the Ki, by convention in mol/L) in data set [1] was 6.45.

As to `CN1CCN(C2CCN(C(=O)Nc3cc(Oc4ccc(NC(=O)C5(C(=O)Nc6ccc(F)cc6)CC5)c(F)c4)ccn3)CC2)CC1` [GOLVATINIB], the pIC50 (in general, −log10 of the IC50, conventionally taken in molar units) in [2] is 7.62; in the data set with HUVEC [3], under 6.00; in data set [4], 7.64; with HUVEC [5] it was 7.77; in data set [6] it was 7.80; in [7] it was 7.43. The pIC50 is 7.08 in the data set on HUVEC [8] and 8.21 in data set [9].

In data set [1], `CN(C[C@@H]1COCCO1)S(=O)(=O)Nc1ccc2ccc3ncc(-c4cnn(C)c4)cc3c(=O)c2c1` [MK-2461] had a pIC50 of 9.40.

For `COc1cc2c(Oc3ccc(NC(=O)C4(C(=O)Nc5ccc(F)cc5)CC4)cc3F)ccnc2cc1OCCCN1CCOCC1` [FORETINIB], in data set [10], the inhibition in vivo at 100 mg/kg was found to be 87%. Further, the Activity was found to be 50% in data set [11], 58% in [13], 62% in [14] and 31% in [15]. Also, the inhibition in vivo at 30 mg/kg in data set [12] worked out at 64%.

In turn, `Cn1cc(-c2ccc3nnc(C(F)(F)c4ccc5ncccc5c4)n3n2)cn1` [JNJ-38877605] showed a pIC50 in data set [1] of 8.40.

On to `CNC(=O)c1cc2c(Oc3ccc(NC(=S)NC(=O)Cc4ccccc4)cc3F)ccnc2cc1OC` [TAS-115], for which the 50% growth inhibitory concentration (GI50) (commonly the concentration at which growth is held to half of that of the control) at 72 h in data set [16] is over 10 µM.

`Nc1nccc(Oc2ccc(NC(=O)c3c[nH]cc(-c4ccc(F)cc4)c3=O)cc2F)c1Cl` [BMS-794833]: the negative-log IC50 (pIC50) in data set [17], in data set [18] and in [19] was over 8.52 each time.

For the molecule `CC1=[N+](c2ccccc2)C(=O)C(C(=O)Nc2ccc(Oc3ccc4nc(NC(=O)C5CC5)cn4c3)c(F)c2)C=C1` (stereo not drawn), the negative-log IC50 (pIC50) in data set [20] is 8.26; in data set [21] it was 8.11.

For the origin of these results see ChEMBL document CHEMBL3763130, “Recent advances in the development of dual VEGFR and c-Met small molecule inhibitors as anticancer drugs” (Eur J Med Chem, 2016).
